Source: patent US7977107B2, “Oral detection test for cannabinoid use” (LabOne, Inc., priority 2004, dated 2011)

Legend:
[1] = Detection of THCA in oral fluid samples of test subjects by GC/MS/MS; format: in vivo, human; conditions: Group C: 26 samples screened and confirmed positive for Δ^9-THC
From the text: Oral fluid samples from 223 test subjects were collected with a commercially available INTERCEPT® oral fluid collection device manufactured by OraSure Technologies, Inc. (Bethlehem, Pa.) in accordance with the manufacturer's instructions. This device comprises an absorbent collection pad (e.g., cotton or a sponge) affixed to the end of a handle. The collection pad of the collection device is placed in the mouth of the subject until the collection pad is substantially saturated with oral fluid, which typically takes about four minutes.
The oral fluid samples were obtained from two drug testing facilities. The samples were divided into three groups: negative screens (A), positive screens (B), and positive confirms (C). Group A consisted of 144 oral fluid samples that had been tested by ELISA for the parent compound Δ^9-THC and were negative for this test (cutoff 4.0 ng/ml Δ^9-THC, cross reactive with THCA at 0.33 ng/ml, no confirmation with GC/MS/MS performed). […] Finally, Group C consisted of 26 oral fluid samples that screened positive by ELISA for the parent compound Δ^9-THC and were also confirmed positive for Δ^9-THC by GC/MS/MS. Each of these samples from Group A, B, and C was then tested for the presence or absence of THCA by GC/MS/MS in accordance with the present invention. […]
Quantitation was performed using the internal standard area of the 495-peak ratio with the 492-peak. […]

[2] = Δ^9-THC metabolism in oral fluid (incubation at about 37° C., THCA assayed versus time); format: in vitro ADME; conditions: 10 ng/ml Δ^9-THC in certified negative oral fluid, several hours, triplicate
Experimental: In this example, Δ^9-THC metabolism in oral fluid was investigated. Δ^9-THC was incubated at about 37° C. in oral fluid for several hours. THCA levels were assayed versus time to ensure metabolism of Δ^9-THC to THCA or THCA-glucuronide in the oral cavity or mucosa was not a possible source of the measured result. This was performed in triplicate at 10 ng/ml using certified negative oral fluid samples. Δ^9-THC standard material of known purity was used.
Δ^9-THC metabolism to THCA was not detected during this experiment. Further, it has been reported that Δ^9-THC metabolism occurs in the liver. See Watanabe, et al., A cytochrome P450 isozyme having aldehyde oxygenase activity plays a major role in metabolizing cannabinoids by mouse hepatic microsomes, Biochem Pharmacol., Vol. 46 No. 3, at pp. 405-11 (August 1993).

| Molecule | THCA level in oral fluid (highest) [1] | Δ^9-THC metabolism to THCA [2] |
| --- | --- | --- |
| 11-nor-Δ^9-THC carboxylic acid [THCA] | ≤ 142 pg/mL |  |
| CCCCCc1cc(O)c2c(c1)OC(C)(C)[C@@H]1CCC(C)=C[C@@H]21 [Δ^9-THC, Δ^9-tetrahydrocannabinol] |  | not detected |
